Earlier results on 1 molecule are cited in US20160264934A1, “METHODS FOR MODULATING AND ASSAYING m6A IN STEM CELL POPULATIONS” (THE GENERAL HOSPITAL CORPORATION, priority 2015, published 2016).

This data set has as its target ALKBH5 (Homo sapiens, UniProt Q6P6C2). The following applies: HPLC-based assays.

ALKBH5, sequence (Q6P6C2 whole entry, species assumed): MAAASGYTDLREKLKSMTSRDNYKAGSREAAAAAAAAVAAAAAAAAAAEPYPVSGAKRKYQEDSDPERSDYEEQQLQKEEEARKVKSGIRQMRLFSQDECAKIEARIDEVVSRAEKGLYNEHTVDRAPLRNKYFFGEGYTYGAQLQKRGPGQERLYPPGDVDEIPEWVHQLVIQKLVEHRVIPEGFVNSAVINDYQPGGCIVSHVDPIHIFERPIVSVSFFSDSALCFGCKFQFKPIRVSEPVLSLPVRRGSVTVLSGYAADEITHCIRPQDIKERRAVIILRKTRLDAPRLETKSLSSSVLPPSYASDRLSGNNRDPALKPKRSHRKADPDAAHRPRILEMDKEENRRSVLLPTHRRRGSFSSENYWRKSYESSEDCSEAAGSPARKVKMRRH

Consider `Cc1ccc(Cl)c(Nc2ccccc2C(=O)O)c1Cl` [meclofenamic acid], for which the “inhibition of ALKBH5” value was “no inhibition”.
